Experimental data as given in patent US8283353B2, “Fused ring compound and use thereof” (Takeda Pharmaceutical Company Limited, priority 2009, dated 2012).

Key:
human PPARγ = target: T1, human PPARγ (Homo sapiens, UniProt P37231); test: PPARγ agonistic activity: luciferase reporter assay in PPARγ:RXRα:4ERPP/CHO-K1 cells; type: cell-based; conditions: CHO-K1, test compound 10^−6 M; luciferase activity of control compound X (1 μM) = 100%, non-administration group = 0%
T1 construct: expressed in transfected cells
T1 sequence (P37231 1-477 isoform P37231-2): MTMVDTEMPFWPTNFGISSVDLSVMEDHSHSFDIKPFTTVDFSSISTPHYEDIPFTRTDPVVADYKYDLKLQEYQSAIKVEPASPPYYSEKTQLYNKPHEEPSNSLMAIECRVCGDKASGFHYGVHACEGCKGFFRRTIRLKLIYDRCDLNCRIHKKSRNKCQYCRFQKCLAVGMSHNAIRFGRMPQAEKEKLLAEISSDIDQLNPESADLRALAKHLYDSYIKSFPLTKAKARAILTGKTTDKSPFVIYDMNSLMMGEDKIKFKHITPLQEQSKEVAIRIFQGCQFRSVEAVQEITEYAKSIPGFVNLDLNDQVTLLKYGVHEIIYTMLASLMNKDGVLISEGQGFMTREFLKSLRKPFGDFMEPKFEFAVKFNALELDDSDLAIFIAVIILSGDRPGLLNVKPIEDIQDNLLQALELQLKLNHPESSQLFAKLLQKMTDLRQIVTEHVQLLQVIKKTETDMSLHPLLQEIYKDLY
T1 sequence (P19793 1-462 partner): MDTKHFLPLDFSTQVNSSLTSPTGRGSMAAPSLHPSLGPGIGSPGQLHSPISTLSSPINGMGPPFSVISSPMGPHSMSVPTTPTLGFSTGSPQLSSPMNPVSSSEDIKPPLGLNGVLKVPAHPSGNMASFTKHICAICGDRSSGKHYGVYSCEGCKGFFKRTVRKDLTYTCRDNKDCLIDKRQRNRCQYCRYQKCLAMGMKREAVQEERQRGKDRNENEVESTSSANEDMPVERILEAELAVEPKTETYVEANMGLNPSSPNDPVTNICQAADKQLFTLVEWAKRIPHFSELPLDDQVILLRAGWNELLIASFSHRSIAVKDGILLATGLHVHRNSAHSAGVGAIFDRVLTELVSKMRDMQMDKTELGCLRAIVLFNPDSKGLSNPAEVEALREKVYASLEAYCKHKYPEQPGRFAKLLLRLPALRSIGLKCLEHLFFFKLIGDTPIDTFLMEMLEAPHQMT
Summary of the method: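 Activity is expressed relative to untreated cells (0%) and 1 μM reference compound X (100%), from luciferase luminescence. Reporter line: PPARγ:RXRα:4ERPP/CHO-K1, exposed to compound for one day at 37 °C in F12 medium containing 0.1% fatty-acid-free BSA.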

human AT1 receptor = target: T2, human AT1 receptor (Homo sapiens, UniProt P30556); test: AT1 receptor antagonistic activity: [125I]-angiotensin II binding assay on human AT1 receptor-expressing CHO-K1 cellular membrane fraction; conditions: 22.5 pM [125I]-angiotensin II, 1 hr room temperature
T2 construct: expressed in transfected cells; membrane fraction
T2 sequence (P30556 1-359): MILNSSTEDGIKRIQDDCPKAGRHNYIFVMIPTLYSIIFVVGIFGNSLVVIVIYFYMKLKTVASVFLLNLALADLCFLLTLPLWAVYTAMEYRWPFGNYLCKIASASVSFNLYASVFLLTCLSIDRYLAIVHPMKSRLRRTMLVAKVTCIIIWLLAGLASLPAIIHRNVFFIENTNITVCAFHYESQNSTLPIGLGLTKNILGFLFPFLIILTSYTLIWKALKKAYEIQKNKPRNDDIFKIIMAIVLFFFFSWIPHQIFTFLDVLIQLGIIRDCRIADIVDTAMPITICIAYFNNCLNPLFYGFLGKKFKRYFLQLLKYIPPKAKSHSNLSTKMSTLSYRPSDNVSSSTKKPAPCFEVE
Summary of the method: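 Competition binding used radiolabelled angiotensin II on stably transfected CHO-K1 membrane fractions in Tris pH 7.4/MgCl2 buffer, optionally containing 0.3 mg/mL fatty acid-free BSA, 1 hr at room temperature. Filtration onto GF/C separated bound tracer, and nonspecific binding was measured with candesartan.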

SMILES: CCCc1c(Cc2ccc(-c3ccccc3-c3noc(=O)[nH]3)cc2)c(=O)n(C2CCC3(CC2)OCCO3)c2nc(C)nn12 [Example 292, 4-(1,4-dioxaspiro[4.5]dec-8-yl)-2-methyl-6-{[2′-(5-oxo-4,5-dihydro-1,2,4-oxadiazol-3-yl)biphenyl-4-yl]methyl}-7-propyl[1,2,4]triazolo[1,5-a]pyrimidin-5(4H)-one]
- activation at 1 µM (human PPARγ): 46%
- IC50 (human AT1 receptor): 1.9 nM

SMILES: CCCc1c(Cc2ccc(-c3ccccc3-c3noc(=O)[nH]3)cc2)c(=O)n(C2CCC3(CC2)O[C@H]2COC[C@H]2O3)c2ncnn12 (stereo partly shown) [Example 293, 6-{[2′-(5-oxo-4,5-dihydro-1,2,4-oxadiazol-3-yl)biphenyl-4-yl]methyl}-7-propyl-4-(tetrahydrospiro[cyclohexane-1,2′-furo[3,4-d][1,3]dioxol]-4-yl)[1,2,4]triazolo[1,5-a]pyrimidin-5(4H)-one]
- activation at 1 µM (human PPARγ): 28%
- IC50 (human AT1 receptor): 2.3 nM

SMILES: CCCc1c(Cc2ccc(-c3ccccc3-c3noc(=O)[nH]3)cc2)c(=O)n(C2CCC3(CC2)OCC(CO)O3)c2ncnn12 (stereo not shown) [Example 294, 4-[2-(hydroxymethyl)-1,4-dioxaspiro[4.5]dec-8-yl]-6-{[2′-(5-oxo-4,5-dihydro-1,2,4-oxadiazol-3-yl)biphenyl-4-yl]methyl}-7-propyl[1,2,4]triazolo[1,5-a]pyrimidin-5(4H)-one]
- activation at 1 µM (human PPARγ): 31%
- IC50 (human AT1 receptor): 2.1 nM

SMILES: CCCc1c(Cc2ccc(-c3ccccc3-c3noc(=O)[nH]3)cc2)c(=O)n([C@H]2CC[C@H](OCC(C)(C)O)CC2)c2nc(C)nn12 [Example 296, 4-[trans-4-(2-hydroxy-2-methylpropoxy)cyclohexyl]-2-methyl-6-{[2′-(5-oxo-4,5-dihydro-1,2,4-oxadiazol-3-yl)biphenyl-4-yl]methyl}-7-propyl[1,2,4]triazolo[1,5-a]pyrimidin-5(4H)-one]
- activation at 1 µM (human PPARγ): 29%
- IC50 (human AT1 receptor): 1.7 nM

SMILES: CCCc1c(Cc2ccc(-c3ccccc3-c3noc(=O)[nH]3)cc2)c(=O)n([C@H]2CC[C@](O)(COC)CC2)c2ncnn12 [Example 297, 4-[cis-4-hydroxy-4-(methoxymethyl)cyclohexyl]-6-{[2′-(5-oxo-4,5-dihydro-1,2,4-oxadiazol-3-yl)biphenyl-4-yl]methyl}-7-propyl[1,2,4]triazolo[1,5-a]pyrimidin-5(4H)-one]
- activation at 1 µM (human PPARγ): 53%
- IC50 (human AT1 receptor): 2.8 nM

SMILES: CCCc1c(Cc2ccc(-c3ccccc3-c3noc(=O)[nH]3)cc2)c(=O)n([C@H]2CC[C@H](OC(C)C(C)O)CC2)c2ncnn12 (stereo partly drawn) [Example 299, 4-[trans-4-(2-hydroxy-1-methylpropoxy)cyclohexyl]-6-{[2′-(5-oxo-4,5-dihydro-1,2,4-oxadiazol-3-yl)biphenyl-4-yl]methyl}-7-propyl[1,2,4]triazolo[1,5-a]pyrimidin-5(4H)-one]
- activation at 1 µM (human PPARγ): 19%
- IC50 (human AT1 receptor): 1.8 nM

SMILES: CCCc1c(Cc2ccc(-c3ccccc3-c3noc(=O)[nH]3)cc2)c(=O)n([C@H]2CC[C@H](OC(C)C(C)(C)O)CC2)c2ncnn12 (stereo partly drawn) [Example 300, 4-[trans-4-(2-hydroxy-1,2-dimethylpropoxy)cyclohexyl]-6-{[2′-(5-oxo-4,5-dihydro-1,2,4-oxadiazol-3-yl)biphenyl-4-yl]methyl}-7-propyl[1,2,4]triazolo[1,5-a]pyrimidin-5(4H)-one]
- activation at 1 µM (human PPARγ): 16%
- IC50 (human AT1 receptor): 1.8 nM

SMILES: CCCc1c(Cc2ccc(-c3ccccc3-c3noc(=O)[nH]3)cc2)c(=O)n([C@H]2CC[C@H](OCC(O)C(F)(F)F)CC2)c2ncnn12 (stereo partly drawn) [Example 325, 6-{[2′-(5-oxo-4,5-dihydro-1,2,4-oxadiazol-3-yl)biphenyl-4-yl]methyl}-7-propyl-4-[trans-4-(3,3,3-trifluoro-2-hydroxypropoxy)cyclohexyl][1,2,4]triazolo[1,5-a]pyrimidin-5(4H)-one]
- activation at 1 µM (human PPARγ): 31%
- IC50 (human AT1 receptor): 2 nM
